Test results as given in patent publication US20220402948A1, “EGFR INHIBITOR, COMPOSITION AND PREPARATION METHOD THEREFOR” (BETTA PHARMACEUTICALS CO., LTD., priority 2019, published 2022).

Legend:
[1] = biological target: Ba/F3-EGFR wild-type cell line (Homo sapiens, UniProt P00533); experiment: Ba/F3-EGFR wild-type cell proliferation assay (CellTiter Glo, 72 hours); format: cell-based; conditions: Table 2, read-out: EGFR WT IC50
In short: (§1)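 Ba/F3 cells stably overexpressing wild-type EGFR or EGFR Δ19del/T790M/C797S were seeded at 2000 cells/well and incubated 72 h with compound. Viability was read by CellTiter-Glo luminescence, and IC50 came from a four-parameter logistic fit of signal against log concentration.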

[2] = biological target: Ba/F3 cells with EGFR Δ19del/T790M/C797S mutation gene stably overexpressed (Homo sapiens, UniProt P00533, T790M/C797S, cells depend on it, form not given); experiment: Ba/F3-Δ19del/T790M/C797S cell proliferation assay (CellTiter Glo, 72 hours); format: cell-based; conditions: Table 2, read-out: EGFR Δ19del/T790M/C797S IC50
Chain of Ba/F3 cells with EGFR Δ19del/T790M/C797S mutation gene stably overexpressed (P00533 with tags, fused parts or gaps DEL746-750/T790M/C797S, form open): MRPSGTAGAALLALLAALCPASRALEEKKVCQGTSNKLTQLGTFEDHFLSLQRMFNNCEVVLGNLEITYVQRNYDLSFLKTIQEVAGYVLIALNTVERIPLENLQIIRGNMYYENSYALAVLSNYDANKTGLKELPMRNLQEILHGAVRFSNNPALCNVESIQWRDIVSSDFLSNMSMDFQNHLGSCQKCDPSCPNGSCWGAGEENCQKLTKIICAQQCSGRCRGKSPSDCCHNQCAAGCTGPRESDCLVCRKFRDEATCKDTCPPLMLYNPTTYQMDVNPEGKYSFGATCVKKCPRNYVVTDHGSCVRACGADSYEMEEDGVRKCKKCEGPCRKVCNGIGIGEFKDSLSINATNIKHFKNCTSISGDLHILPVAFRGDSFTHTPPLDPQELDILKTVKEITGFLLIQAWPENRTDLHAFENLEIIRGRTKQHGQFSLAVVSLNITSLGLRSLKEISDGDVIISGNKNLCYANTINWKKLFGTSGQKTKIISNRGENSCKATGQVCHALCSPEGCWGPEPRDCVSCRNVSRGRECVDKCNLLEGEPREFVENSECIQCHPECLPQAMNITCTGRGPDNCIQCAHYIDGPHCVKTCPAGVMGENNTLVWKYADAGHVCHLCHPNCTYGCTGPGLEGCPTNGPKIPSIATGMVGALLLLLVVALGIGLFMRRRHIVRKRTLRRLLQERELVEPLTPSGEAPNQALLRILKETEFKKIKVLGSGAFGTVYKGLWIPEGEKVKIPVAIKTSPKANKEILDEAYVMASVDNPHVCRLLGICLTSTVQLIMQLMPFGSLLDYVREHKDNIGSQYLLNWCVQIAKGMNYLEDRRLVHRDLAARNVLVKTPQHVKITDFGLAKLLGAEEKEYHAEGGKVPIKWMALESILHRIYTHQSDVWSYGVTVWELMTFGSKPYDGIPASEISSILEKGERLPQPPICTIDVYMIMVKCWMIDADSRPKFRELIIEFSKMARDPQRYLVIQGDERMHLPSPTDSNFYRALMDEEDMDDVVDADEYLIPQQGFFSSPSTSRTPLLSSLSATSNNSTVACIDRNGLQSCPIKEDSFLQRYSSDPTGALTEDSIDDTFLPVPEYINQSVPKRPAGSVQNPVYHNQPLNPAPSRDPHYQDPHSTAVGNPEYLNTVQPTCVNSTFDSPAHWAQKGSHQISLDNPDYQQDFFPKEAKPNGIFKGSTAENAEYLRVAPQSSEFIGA
In short: as §1

EGFR WT = EGFR WT (Homo sapiens, UniProt P00533); experiment: EGFR WT kinase test (mobility variation analysis, Caliper EZ Reader); format: biochemical; conditions: kinase enzymatic activity, Table 1
Chain of EGFR WT (P00533 25-1210): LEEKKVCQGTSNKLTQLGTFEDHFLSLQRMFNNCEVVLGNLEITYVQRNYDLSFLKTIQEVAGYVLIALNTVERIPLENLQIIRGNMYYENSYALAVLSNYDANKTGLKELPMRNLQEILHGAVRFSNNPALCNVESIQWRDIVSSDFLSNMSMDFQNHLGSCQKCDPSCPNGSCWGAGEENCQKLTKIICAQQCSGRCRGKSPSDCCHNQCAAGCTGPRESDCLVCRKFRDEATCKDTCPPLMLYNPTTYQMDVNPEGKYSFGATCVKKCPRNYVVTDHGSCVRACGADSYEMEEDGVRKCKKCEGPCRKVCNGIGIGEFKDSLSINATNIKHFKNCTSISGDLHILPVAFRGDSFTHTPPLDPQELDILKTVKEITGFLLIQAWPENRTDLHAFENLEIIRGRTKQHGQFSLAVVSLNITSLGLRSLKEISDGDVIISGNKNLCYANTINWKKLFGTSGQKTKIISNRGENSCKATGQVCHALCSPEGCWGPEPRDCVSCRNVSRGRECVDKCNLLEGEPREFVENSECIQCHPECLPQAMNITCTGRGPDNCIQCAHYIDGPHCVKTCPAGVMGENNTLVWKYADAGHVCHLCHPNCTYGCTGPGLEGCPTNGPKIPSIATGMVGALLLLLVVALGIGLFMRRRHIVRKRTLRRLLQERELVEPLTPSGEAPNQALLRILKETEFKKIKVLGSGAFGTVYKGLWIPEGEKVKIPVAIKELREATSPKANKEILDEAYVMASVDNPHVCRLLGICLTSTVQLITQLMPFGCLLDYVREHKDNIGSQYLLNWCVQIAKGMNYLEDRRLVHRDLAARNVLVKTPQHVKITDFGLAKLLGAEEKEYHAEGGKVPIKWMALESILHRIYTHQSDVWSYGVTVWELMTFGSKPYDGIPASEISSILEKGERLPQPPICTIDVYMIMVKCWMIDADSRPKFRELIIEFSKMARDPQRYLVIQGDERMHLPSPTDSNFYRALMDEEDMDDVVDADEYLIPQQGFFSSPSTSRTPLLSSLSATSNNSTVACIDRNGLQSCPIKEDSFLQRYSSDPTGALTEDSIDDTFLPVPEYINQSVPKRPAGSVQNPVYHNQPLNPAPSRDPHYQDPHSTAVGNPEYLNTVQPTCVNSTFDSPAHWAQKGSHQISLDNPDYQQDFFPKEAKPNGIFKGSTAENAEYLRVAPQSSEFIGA
In short: (§2)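 Read-out is substrate-to-product conversion by mobility shift, stopped after incubation at room temperature with ATP and substrate, following a 10-minute room-temperature compound–enzyme pre-incubation. IC50 obtained by four-parameter variable-slope fitting of inhibition normalized between enzyme-free and uninhibited controls.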

EGFRΔ19del/T790M/C797S = EGFRΔ19del/T790M/C797S (Homo sapiens, UniProt P00533, T790M/C797S, form not given); experiment: EGFR Δ19del/T790M/C797S kinase test (mobility variation analysis, Caliper EZ Reader); format: biochemical; conditions: kinase enzymatic activity, Table 1
Chain of EGFRΔ19del/T790M/C797S (P00533 with tags, fused parts or gaps DEL746-750/T790M/C797S, form open): as the sequence (P00533 with tags, fused parts or gaps DEL746-750/T790M/C797S, form open) above
In short: as §2

A431 = A431 cell proliferation assay (CellTiter Glo, 72 hours); format: cell-based; conditions: Homo sapiens, A-431, 72 h, cell proliferation, A431, 72 hours, Table 2; read-out: A431 IC50
In short: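 Luminescence (CellTiter-Glo) after 72 h treatment gives viability, fitted by nonlinear regression to yield IC50. Cells seeded at 2000 per well; nine 3-fold concentrations from 1000 nM, DMSO final 0.1% (0.5% for certain compounds).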

IGF1R = IGF1R (Homo sapiens, UniProt P08069); experiment: IGF1R kinase test (mobility variation analysis, Caliper EZ Reader); format: biochemical; conditions: kinase enzymatic activity, Table 1; read-out: EGFR IGF1R IC50
Chain of IGF1R (P08069 31-1367, species assumed): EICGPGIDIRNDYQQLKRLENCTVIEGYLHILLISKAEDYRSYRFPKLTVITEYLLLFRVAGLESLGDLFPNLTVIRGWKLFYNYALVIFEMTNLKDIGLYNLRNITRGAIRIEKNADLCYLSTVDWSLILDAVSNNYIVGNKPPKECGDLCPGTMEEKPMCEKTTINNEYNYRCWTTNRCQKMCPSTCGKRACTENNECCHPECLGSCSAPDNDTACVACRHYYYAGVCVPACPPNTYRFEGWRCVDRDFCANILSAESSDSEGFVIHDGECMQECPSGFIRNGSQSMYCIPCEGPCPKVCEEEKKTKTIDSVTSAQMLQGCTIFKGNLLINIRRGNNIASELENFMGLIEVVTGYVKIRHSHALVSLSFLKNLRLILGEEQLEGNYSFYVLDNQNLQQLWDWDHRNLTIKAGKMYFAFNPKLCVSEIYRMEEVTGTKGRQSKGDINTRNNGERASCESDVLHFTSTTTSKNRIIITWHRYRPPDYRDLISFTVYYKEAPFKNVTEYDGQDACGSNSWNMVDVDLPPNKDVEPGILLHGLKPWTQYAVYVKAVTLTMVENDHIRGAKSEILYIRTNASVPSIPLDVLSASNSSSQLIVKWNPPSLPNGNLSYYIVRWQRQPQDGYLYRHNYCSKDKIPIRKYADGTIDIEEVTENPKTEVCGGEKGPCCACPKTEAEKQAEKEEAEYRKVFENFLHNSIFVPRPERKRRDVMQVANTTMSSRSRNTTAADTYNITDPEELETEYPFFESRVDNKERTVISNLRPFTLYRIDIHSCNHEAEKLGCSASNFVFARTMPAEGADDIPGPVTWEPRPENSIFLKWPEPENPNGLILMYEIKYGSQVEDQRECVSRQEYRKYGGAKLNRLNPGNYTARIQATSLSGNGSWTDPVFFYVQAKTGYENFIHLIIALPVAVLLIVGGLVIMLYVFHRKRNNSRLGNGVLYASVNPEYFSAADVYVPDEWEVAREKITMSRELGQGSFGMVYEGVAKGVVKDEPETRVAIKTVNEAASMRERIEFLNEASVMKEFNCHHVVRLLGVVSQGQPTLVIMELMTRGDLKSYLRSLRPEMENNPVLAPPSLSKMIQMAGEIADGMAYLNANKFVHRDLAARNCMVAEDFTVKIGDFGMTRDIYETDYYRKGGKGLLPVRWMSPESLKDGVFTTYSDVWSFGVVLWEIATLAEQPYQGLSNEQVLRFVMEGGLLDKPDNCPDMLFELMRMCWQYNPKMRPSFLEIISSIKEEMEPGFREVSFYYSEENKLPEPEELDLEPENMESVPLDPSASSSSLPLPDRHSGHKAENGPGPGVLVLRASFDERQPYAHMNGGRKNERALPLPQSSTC
In short: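 Mobility-shift readout of substrate conversion, normalised to positive (no compound) and negative (no kinase) controls, gives % inhibition and IC50 by four-parameter fit. Compounds, 3-fold dilutions over 10 concentrations starting at 3000 nM, preincubated 10 min with kinase before ATP/substrate start; room temperature.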

SMILES	GI50 [1]	GI50 [2]	IC50 (EGFR WT)	IC50 (EGFRΔ19del/T790M/C797S)	IC50 (A431)	IC50 (IGF1R)
COc1cc(Nc2ncc(Br)c(Nc3ccc(-c4cnn(C)c4)cc3P(C)(C)=O)n2)c(C)cc1N1CCOCC1 [Compound K-030, (2-((5-Bromo-2-((5-methoxy-2-methyl-4-morpholinophenyl)amino)pyrimidin-4-yl)amino)-5-(1-methyl-1H-pyrazol-4-yl)phenyl)dimethylphosphine oxide]	132 nM	3.6 nM	7.8 nM	0.2 nM	615 nM	21.5 nM
COc1cc(Nc2ncc(Br)c(Nc3ccc(-c4ccc(C)cn4)cc3P(C)(C)=O)n2)c(C)cc1N1CCOCC1 [Compound K-032, (2-((5-Bromo-2-((5-methoxy-2-methyl-4-morpholinophenyl)amino)pyrimidin-4-yl)amino)-5-(5-methylpyridin-2-yl)phenyl)dimethylphosphine oxide]	128 nM	4.8 nM	55.2 nM	0.3 nM	1340 nM	106 nM
COc1cc(Nc2ncc(Br)c(Nc3ccc(-c4cnc(C5CC5)cn4)cc3P(C)(C)=O)n2)c(C)cc1N1CCOCC1 [Compound K-033, (2-((5-Bromo-2-((5-methoxy-2-methyl-4-morpholinophenyl)amino)pyrimidin-4-yl)amino)-5-(5-cylopropylpyrazin-2-yl)phenyl)dimethylphosphine oxide]	63.5 nM	6.4 nM	55.6 nM	0.3 nM	1590 nM	121 nM
CCOc1cc(Nc2ncc(Br)c(Nc3ccc(-c4cnn(C)n4)c(F)c3P(C)(C)=O)n2)c(C)cc1N1CCOCC1 [Compound K-034, (6-((5-Bromo-2-((5-ethoxy-2-methyl-4-morpholinophenyl)amino)pyrimidin-4-yl)amino)-2-fluoro-3-(2-methyl-2H-1,2,3-triazol-4-yl)phenyl)dimethylphosphine oxide]	219 nM	20.9 nM	64.4 nM	0.4 nM	1230 nM	37.1 nM
CCOc1cc(Nc2ncc(Br)c(Nc3ccc(-c4ccc(C)cn4)cc3P(C)(C)=O)n2)c(C)cc1N1CCOCC1 [Compound K-035, (2-((5-Bromo-2-((5-ethoxy-2-methyl-4-morpholinophenyl)amino)pyrimidin-4-yl)amino)-5-(5-methylpyridin-2-yl)phenyl)dimethylphosphine oxide]	146 nM	18.6 nM	42.8 nM	0.3 nM	1680 nM	48.7 nM
COc1cc(Nc2ncc(Br)c(Nc3ccc(-c4cnn(C)n4)c(F)c3P(C)(C)=O)n2)c(C)cc1N1CC(C)OC(C)C1 (stereo not drawn) [Compound K-037, (6-((5-Bromo-2-((4-(2,6-dimethylmorpholine)-5-methoxy-2-methylphenyl)amino)pyrimidin-4-yl)amino)-2-fluoro-3-(2-methyl-2H-1,2,3-triazol-4-yl)phenyl)dimethylphosphine oxide]	374 nM	10.9 nM	125 nM	0.8 nM	7530 nM	251 nM
COc1cnn(-c2ccc(Nc3nc(Nc4cc(OC)c(N5CCC(N(C)C)CC5)cc4C)ncc3Br)c(P(C)(C)=O)c2)c1 [Compound K-038, (2-((5-Bromo-2-((4-(4-(dimethylamino)piperidin-1-yl)-5-methoxy-2-methylphenyl)amino)pyrimidine-4-yl)amino)-5-(4-methoxy-1H-pyrazol-1-yl)phenyl)dimethylphosphine oxide]	114 nM	15.4 nM	19.2 nM	0.2 nM	1040 nM	56.1 nM
COc1cnn(-c2ccc(Nc3nc(Nc4cc(OC)c(N5CCC(O)CC5)cc4C)ncc3Br)c(P(C)(C)=O)c2)c1 [Compound K-039, (2-((5-Bromo-2-((4-(4-hydroxypiperidin-1-yl)-5-methoxy-2-methylphenyl)amino)pyrimidin-4-yl)amino)-5-(4-methoxy-1H-pyrazol-1-yl)phenyl)dimethylphosphine oxide]	523 nM	27.5 nM	14.3 nM	0.1 nM	> 10000 nM	45.6 nM
CCc1cc(Nc2ncc(Br)c(Nc3ccc(-c4cnn(C)n4)cc3P(C)(C)=O)n2)c(OC)cc1N1CCC(N2CCOCC2)CC1 [Compound K-040, (2-((5-Bromo-2-((5-ethyl-2-methoxy-4-(4-morpholinopiperidin-1-yl)phenyl)amino)pyrimidin-4-yl)amino)-5-(2-methyl-2H-1,2,3-triazol-4-yl)phenyl)dimethylphosphine oxide]	302 nM	14.5 nM	24.5 nM	0.3 nM	6630 nM	134 nM
CCc1cc(Nc2ncc(Br)c(Nc3ccc(-c4cnn(C)c4)c(OC)c3P(C)(C)=O)n2)c(OC)cc1N1CCC(N2CCN(C)CC2)CC1 [Compound K-041, (6-((5-Bromo-2-((5-ethyl-2-methoxy-4-(4-(4-methylpiperazin-1-yl)piperidin-1-yl)phenyl)amino)pyrimidin-4-yl)amino)-2-methoxy-3-(1-methyl-1H-pyrazol-4-yl)phenyl)dimethylphosphine oxide]	147 nM	15.8 nM	12.2 nM	0.4 nM	317 nM	14.7 nM
CCc1cc(Nc2ncc(Br)c(Nc3ccc(-c4cnn(C)c4)cc3P(C)(C)=O)n2)c(OC)cc1N1CCC(N2CCOCC2)CC1 [Compound K-042, (2-((5-Bromo-2-((5-ethyl-2-methoxy-4-(4-morpholinopiperidin-1-vi)phenyl)amino)pyrimidin-4-yl)amino)-5-(1-methyl-1-pyrazol-4-yl)phenyl)-dimethylphosphine oxide]	206 nM	4.3 nM	15.9 nM	0.4 nM	815 nM	71 nM
CCCc1cc(Nc2ncc(Br)c(Nc3ccc(-c4cnn(C)c4)cc3P(C)(C)=O)n2)c(OC)cc1N1CCC(N2CCN(C)CC2)CC1 [Compound K-043, (2-((5-Bromo-2-((2-methoxy-4-(4-(4-methylpiperazin-1-yl)piperidin-1-yl)-5-propylphenyl)amino)pyrimidin-4-yl)amino)-5-(1-methyl-1H-pyrazol-4-yl)phenyl)dimethylphosphine oxide]	127 nM	4.3 nM	14.2 nM	0.5 nM	456 nM	30.2 nM
CCc1cc(Nc2ncc(Br)c(Nc3ccc(-c4cnn(C)c4)cc3P(C)(C)=O)n2)c(OC)cc1N1CCC(N(C)C)CC1 [Compound K-044, (2-((5-Bromo-2-((4-(4-(dimethylamino)piperidin-1-yl)-5-ethyl-2-methoxyphenyl)amino)pyrimidin-4-yl)amino)-5-(1-methyl-1H-pyrazol-4-yl)phenyl)dimethylphosphine oxide]	166 nM	3.8 nM	8.2 nM	0.3 nM	280 nM	38.2 nM
CCc1cc(Nc2ncc(Br)c(Nc3ccc(-c4cnn(C)c4)c(C)c3P(C)(C)=O)n2)c(OC)cc1N1CCC(N2CCN(C)CC2)CC1 [Compound K-046, (6-((5-Bromo-2-((5-ethyl-2-methoxy-4-(4-(4-methylpiperazin-1-yl)piperidin-1-yl)phenyl)amino)pyrimidin-4-yl)amino)-2-methyl-3-(1-methyl-1H-pyrazol-4-yl)phenyl)dimethylphosphine oxide]	34.8 nM	7.6 nM	9.9 nM	0.5 nM	306 nM	28.7 nM
CCc1cc(Nc2ncc(Br)c(Nc3ccc(-c4ccccc4)cc3P(C)(C)=O)n2)c(OC)cc1N1CCC(N2CCOCC2)CC1 [Compound K-047, (4-((5-Bromo-2-((5-ethyl-2-methoxy-4-(4-morpholinopiperidin-1-yl)phenyl)amino)pyrimidin-4-yl)amino)-[1,1′-biphenyl]-3-yl)dimethylphosphine oxide]	95.6 nM	29.8 nM	43 nM	0.8 nM	12600 nM	217 nM
CCc1cc(Nc2ncc(Br)c(Nc3ccc(-c4ccccc4F)cc3P(C)(C)=O)n2)c(OC)cc1N1CCC(N2CCOCC2)CC1 [Compound K-048]	156 nM	12.9 nM	77.2 nM	1 nM	23100 nM	587 nM
